Measured values taken from patent US7968124B2, “Compositions for the reversal and detoxification of anesthetics and other compounds and methods of their use” (Lyotropic Therapeutics, Inc., priority 2004, dated 2011).
≈ marks a conversion by molar mass, not a printed value. Read-outs that look alike come from different tables or passages of the source.

Columns and labels:
[1] = Partition of amphotericin B between PC/alpha-tocopherol/water cubic phase and water (HPLC); type: physicochemical
Protocol: Amphotericin B provides an example of an API with high toxicity which has a site of action in the interior of a fungal lipid biomembrane.
An amount 0.0082 g of Amphotericin B and 0.8 mL of DMSO (dimethylsulfoxide) were added to a 16 mL test tube. The test tube was heated to 60° C. until the amphotericin B was completely dissolved. An amount 0.692 g of 2.5% DMPG in the phosphatidylcholine product Lipoid E80, 0.8 mL of DMSO, and 0.6 mL of ethanol were added to a second 16 mL test tube. The mixture was heated to 60° C. and vortexed until the Lipoid E80/DMPG was entirely dissolved. An amount 0.6873 g of vitamin E and 0.8 mL of DMSO were added to a third 16 mL test tube. The mixture was heated to 60° C. and vortexed until the vitamin E was completely dissolved. The contents of the second and third test tubes were added to the first test tube containing the amphotericin B and DMSO mixture. The test tube containing the entire mixture was heated to 60° C. for 30 minutes to ensure that all components were completely dissolved.
An amount of 10 mL of deionized water was added to the test tube. The test tube was gently shaken at 40 RPM for 30 minutes on a Lab-Line Junior Orbit Shaker. The aqueous portion was decanted and filtered through Aldrich medium speed filter paper into a clean test tube and labeled “wash 1”. This washing procedure was repeated three additional times to obtain “wash 2”, “wash 3”, and “wash 4”.
HPLC analysis was then performed to determine the amphotericin B concentrations in the 4 wash solutions and the final, quadruply-washed cubic phase. […] In contrast, the amphotericin B concentrations in the “wash 3” and “wash 4” solutions were both approximately 0.0035 mg/mL, thus making the partition coefficient on the order of 1,000.

[2] = Uptake of toxin into particles, centrifuge filter separation and HPLC: etomidate; conditions: etomidate in the absence of albumin
[3] = Solubility of drugs in soy oil, water, tocopherol and PC/tocopherol/water cubic phase
Protocol: (§1) Methanol and dichloromethane were particularly effective for this purpose. After solubilizing the compound and soy oil or tocopherol together with the common solvent, the common solvent was then evaporated using a rotovap. At the resulting concentration of the compound in soy oil or tocopherol, the sample was monitored over approximately 4 weeks for any sign of precipitation, using centrifugation and microscopy; the microscopy was performed using a combination of Differential Interference Contrast (DIC), transmitted dark field, and polarizing modes.

[4] = intravenous doses as high as 30 mg/Kg/day; cited from earlier work
[5] = tested on: bupivacaine cardiotoxicity; assay: Rescue in rat model with normally-lethal intravenous injection of bupivacaine; type: in vivo; conditions: rats, 12 mg/Kg intravenously, all animals
Protocol: The RA5-5E and RA5-15E dispersions prepared in Example 10 were subsequently tested in vivo as a rescue agent in a rat model incorporating a normally-lethal intravenous injection of bupivacaine. Twelve adult male rats were randomly arranged into three groups of four animals each. Animals in each group were given a known lethal dose (12 mg/Kg) of the amide local anesthetic bupivacaine intravenously. Each animal was monitored for signs of acute cardiotoxicity. All animals became pulseless within 10 seconds of the injection of bupivacaine. When each animal became pulseless, it was treated immediately with mild chest compression and with one of the following: (i) 4 ml/Kg normal physiologic saline (Group A); (ii) 4 ml/Kg of dispersion RA5-15E of the instant invention with a 15 percent particle concentration (Group B); or, (iii) 6 ml/Kg of dispersion RA5-5E of the instant invention with a 5.6 percent particle concentration (Group C). […] The administration of the dispersion according to the instant invention rescued the animals from death due to the systemic toxicity of an overdose of a common local anesthetic agent.

[6] = Effective partition coefficients of local anesthetics into Example 10 dispersions in the presence of albumin; conditions: dispersions and methods of Example 10, RA5-15E dispersion named
Protocol: Nanosep Omega centrifuge filters at 300,000 MWCO from Pall Filtron were used to separate particles from exterior phase.
For HPLC analysis, the bottom phase liquid (filtrate) was injected directly, and the top phase (retentate) dissolved in 500 microliters of methanol, then injected. […] Standards were run for each of the toxins, and toxin concentrations determined in the exterior (bottom) phase and in the top phase retentate.
The analysis proceeded as follows. […] From this and the top phase assay value, the concentration of toxin in the particles was back-calculated. This was then divided by the aqueous phase (bottom phase) concentration, since this was undiluted, in order to arrive at an effective partition coefficient.

[7] = pH 7.4; cited from earlier work
[8] = Binding of strontium ions to cubic phase particles (precipitation, centrifugation); type: physicochemical; conditions: 18.9 mM strontium chloride added to RA5-15E; immediate precipitation, centrifuged to the bottom
Description: A high degree of binding of strontium ions to the phosphatidylcholine in RA5-15E was evidenced by the immediate precipitation of the cubic phase, which centrifuged to the bottom of the dispersion. Were the heavy strontium ions not bound, the cubic phase would be less dense than water and would have centrifuged to the top of the dispersion, as is the usual case with other methods of precipitating the particles. Radiostrontium, and to a lesser extent strontium, have known toxic effects, as do related phosphatidylcholine-binding metals. More broadly, this Example illustrates how the effect of large bilayer surface areas in cubic phase particles can result in effective uptake of toxins that bind to bilayer components.

[9] = Partitioning of vecuronium bromide between phosphatidylcholine/tocopherol/water reversed cubic phase and water (HPLC); type: physicochemical
Protocol: In this Example, the partitioning of the quaternary ammonium skeletal muscle relaxant vecuronium bromide, a water-soluble compound with a low octanol-water partition coefficient, between a phosphatidylcholine/tocopherol/water reversed cubic phase and water is measured, and found to be very high, sufficiently high as to enable the use of the invention in attenuating the effect of the drug in the body of a mammal. An amount 0.6169 gm of phosphatidylcholine (Phospholipon 90G, from Phospholipid GmbH) was mixed with 0.6730 gm of alpha-tocopherol and 0.2194 gm of a 10% vecuronium bromide solution in water. An amount 1.1226 gm of this mixture was smeared onto the inner wall of a test tube, and 6.4495 gm of water added to the tube so as to contact the mixture. Upon swelling with water, the mixture became a reversed cubic phase. […] The partition coefficient between cubic phase and water was thus approximately 1,600 (or log KQW=3.2). […] One with ordinary skill in the art will recognize that the vecuronium mass balance checks correctly if one assumes that the water content of the final cubic phase, after swelling to equilibrium, is approximately 40%, which is in perfect accord with the phase diagram derived in this laboratory for this cubic phase region.

[10] = oil or lipid, Solubility in soy oil

Protocol for physchem: as §1

C[C@@H]1[C@H](O)[C@@H](C)/C=C/C=C/C=C/C=C/C=C/C=C/C=C/[C@H](O[C@@H]2O[C@H](C)[C@@H](O)[C@H](N)[C@@H]2O)C[C@@H]2O[C@](O)(C[C@@H](O)C[C@@H](O)[C@H](O)CC[C@@H](O)C[C@@H](O)CC(=O)O[C@H]1C)C[C@H](O)[C@H]2C(=O)O [amphotericin B]
concentration in "wash 3" and "wash 4" solutions [1]: approximately 0.0035 mg/mL | true concentration in the cubic phase itself, estimated ([1]; corrected for entrapped water): approximately 3 mg/mL | concentration in quadruply-washed cubic phase (HPLC) ([1]; cubic phase with entrapped pockets of water): 1760 µg/mL

CCOC(=O)c1cncn1[C@H](C)c1ccccc1 [Etomidate]
solubility (physchem; oil or lipid, Solubility in cubic phase with tocopherol, approx. 34% phosphatidylcholine, 31% tocopherol plus compound, 35% water): 105 mg/mL | solubility (physchem; [10]): 80 mg/mL (≈ 327 mM) | solubility (physchem; oil or lipid, Solubility in tocopherol): 200 mg/mL (≈ 819 mM) | solubility (physchem; water, Solubility in Water): 4.5e-05 mg/mL (≈ 0.000184 mM) | effective partition coefficient [2]: 309

COc1c(C)c2c(c(O)c1C/C=C(\C)CCC(=O)OCCN1CCOCC1)C(=O)OC2 [Mycophenolate mofetil]
solubility ([3]; soy oil, oil or lipid): 3000 µg/mL (≈ 6.92 mM) | solubility ([3]; tocopherol, oil or lipid): 200000 µg/mL (≈ 461 mM) | solubility ([3]; water): 39 µg/mL (≈ 0.09 mM)

tocopherol
adverse effects of intravenous doses [4]: essentially free from any adverse effects

CCCCN1CCCCC1C(=O)Nc1c(C)cccc1C (stereo not shown) [bupivacaine]
time to pulselessness after injection [5]: ≤ 10 s | effective partition coefficient [6]: 62 | octanol-water coefficient [7]: greater than 1,000

CCC(C)n1ncn(-c2ccc(N3CCN(c4ccc(OCC5COC(Cn6cncn6)(c6ccc(Cl)cc6Cl)O5)cc4)CC3)cc2)c1=O (stereo not shown) [Itraconazole]
solubility ([3]; soy oil, oil or lipid): < 500 µg/mL | solubility ([3]; water): 0.001 µg/mL (≈ 1.42e-06 mM)

[Cl-].[Cl-].[Sr+2] [strontium ions, strontium chloride]
binding of strontium ions to cubic phase particles [8]: strong binding

CCOC(=O)c1ccc(N)cc1 [benzocaine]
effective partition coefficient [6]: 148

CC(=O)O[C@H]1C(=O)[C@@]2(C)[C@H]([C@H](OC(=O)c3ccccc3)[C@]3(O)C[C@H](OC(=O)[C@H](O)[C@@H](NC(=O)c4ccccc4)c4ccccc4)C(C)=C1C3(C)C)[C@]1(OC(C)=O)CO[C@@H]1C[C@@H]2O [Paclitaxel]
solubility (physchem; oil or lipid, Solubility in cubic phase with spearmint oil in place of tocopherol): 42 mg/mL (≈ 49.2 mM) | solubility (physchem; [10]): < 0.1 mg/mL | solubility (physchem; oil or lipid, Solubility in spearmint oil (used in place of tocopherol)): 100 mg/mL (≈ 117 mM)

CC(=O)O[C@H]1C[C@@H]2CC[C@@H]3[C@H](CC[C@@]4(C)[C@H]3C[C@H]([N+]3(C)CCCCC3)[C@@H]4OC(C)=O)[C@@]2(C)C[C@@H]1N1CCCCC1 [vecuronium bromide]
log KQW [9]: 3.2 | partition coefficient between cubic phase and water [9]: approximately 1,600 | concentration in the aqueous phase ([9]; after 3 days of contact): 6 µg/mL | concentration in the cubic phase ([9]; after 3 days of contact): 10000 µg/mL | log KQW ([9]; anionic lipid content increased by incorporating a bile salt): approximately 4 | cubic phase-water partition coefficient ([9]; for at least some cubic phases of use in the invention): above 1,000
